ChEMBL document CHEMBL1151093, “6,7,8,9-tetrahydro-3-hydroxy-1H-1-benzazepine-2,5-diones via a diels-alder reaction:antagonists with a non-planar hydrophobic region for NMDA receptor glycine sites” (Bioorg Med Chem Lett, 1995)

Biological target: Glutamate receptor ionotropic, NMDA 1 (Rattus norvegicus, UniProt P35439)
Experiment: Tested for the inhibition of [3H]5,7-dichlorokynurenic acid (DCKA) binding to NMDA receptor

IC50 [nM]	SMILES
3210	O=c1cc(O)c2c([nH]c1=O)CCCC2
228	CC1Cc2[nH]c(=O)c(=O)cc(O)c2CC1C (stereo not given)
827	O=c1cc(O)c2ccccc2[nH]c1=O
131	O=c1cc(O)c2c([nH]c1=O)CC(Cl)C(Cl)C2 (stereo not given)
13	O=c1cc(O)c2ccc(Cl)cc2[nH]c1=O
